Experimental data taken from patent publication US12661359B2 (Madrigal Pharmaceuticals, Inc., priority 2021, dated 2026).

Legend:
human OSTαβ = biological target: T1, human OSTαβ (Homo sapiens, UniProt Q86UW1+Q86UW2); assay: OSTαβ-mediated transport in transfected MDCK-II cells versus control cells
T1 sequence (Q86UW1 1-340): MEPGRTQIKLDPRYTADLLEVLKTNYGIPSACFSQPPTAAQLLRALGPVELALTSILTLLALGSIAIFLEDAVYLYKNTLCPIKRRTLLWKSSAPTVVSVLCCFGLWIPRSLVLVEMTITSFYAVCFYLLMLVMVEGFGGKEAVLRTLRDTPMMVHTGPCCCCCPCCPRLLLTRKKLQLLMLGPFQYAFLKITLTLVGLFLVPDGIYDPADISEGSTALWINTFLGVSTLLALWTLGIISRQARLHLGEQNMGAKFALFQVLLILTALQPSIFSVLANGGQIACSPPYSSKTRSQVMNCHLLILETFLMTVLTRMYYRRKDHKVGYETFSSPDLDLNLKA
T1 sequence (Q86UW2 1-128): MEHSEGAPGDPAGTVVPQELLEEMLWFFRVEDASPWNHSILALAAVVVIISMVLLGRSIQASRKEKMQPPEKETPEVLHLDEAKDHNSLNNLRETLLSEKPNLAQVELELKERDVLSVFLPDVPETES
Description: Transfected cells and control cells are both exposed to the compound, and the concentration of the compound in the transfected cells and the control cells are then measured. An uptake ratio can then be calculated to quantify the difference of the concentration, indicating whether OSTαβ mediates the transport of the compound.
MGL-3196 was tested as a potential substrate for human OSTαβ-mediated transport.

[1] = human, in vivo
clinical = conditions: human, in vivo; for AUC(0-inf): AUCinf; for AUC(0-t): AUClast
[2] = tested on: patients with heterozygous familial hypercholesterolemia (HeFH); assay: Phase 2 trial MGL-3196-06 (NCT03038022) in HeFH patients; assay type: in vivo, human; conditions: MGL-3196 100 mg once daily, 12 weeks
Description: A Phase 2 clinical trial was conducted in 116 patients with proven heterozygous familial hypercholesterolemia (HeFH). The primary endpoint was reduction in LDL-C compared with placebo and secondary endpoints included effects on additional lipids and lipoproteins.
MGL-3196-06 (NCT03038022) was a 12-week multicenter, randomized, double blind, placebo-controlled trial in HeFH patients not at LDL-C target on maximally tolerated statins. Patients received MGL-3196 100 mg or placebo once daily for 12 weeks (in a 2:1 ratio) in addition to their LDL-C lowering regimen.

BCRP = biological target: T2, BCRP (Homo sapiens, UniProt Q9UNQ0); assay: BCRP inhibition and DDI R-value assessment; assay type: in vitro ADME
T2 sequence (Q9UNQ0 1-655): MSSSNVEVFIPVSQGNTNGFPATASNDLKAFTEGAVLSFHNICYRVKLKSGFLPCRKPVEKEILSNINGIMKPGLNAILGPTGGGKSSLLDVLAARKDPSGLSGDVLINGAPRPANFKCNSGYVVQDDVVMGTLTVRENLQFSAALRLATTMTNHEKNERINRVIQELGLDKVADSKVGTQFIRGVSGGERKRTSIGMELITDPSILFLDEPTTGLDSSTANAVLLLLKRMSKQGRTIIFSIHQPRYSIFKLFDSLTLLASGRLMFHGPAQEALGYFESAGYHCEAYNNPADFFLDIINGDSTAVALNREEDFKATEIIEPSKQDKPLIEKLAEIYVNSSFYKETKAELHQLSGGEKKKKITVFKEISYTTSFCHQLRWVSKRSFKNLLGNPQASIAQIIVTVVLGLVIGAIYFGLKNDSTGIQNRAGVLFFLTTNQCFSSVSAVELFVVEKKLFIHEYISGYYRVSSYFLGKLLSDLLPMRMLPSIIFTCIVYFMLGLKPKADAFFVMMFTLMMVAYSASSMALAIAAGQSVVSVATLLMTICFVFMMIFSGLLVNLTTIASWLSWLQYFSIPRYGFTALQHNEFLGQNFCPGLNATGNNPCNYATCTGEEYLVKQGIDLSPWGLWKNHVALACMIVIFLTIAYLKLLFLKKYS
From the text: (§1) Based on the predicted gut-wall BCRP interaction (R=33.5), there is a possible contribution of gut BCRP inhibition to drug interactions.

P-gp = P-gp (Homo sapiens, UniProt P08183); assay: P-gp inhibition; assay type: in vitro ADME
P-gp, sequence (P08183 whole entry): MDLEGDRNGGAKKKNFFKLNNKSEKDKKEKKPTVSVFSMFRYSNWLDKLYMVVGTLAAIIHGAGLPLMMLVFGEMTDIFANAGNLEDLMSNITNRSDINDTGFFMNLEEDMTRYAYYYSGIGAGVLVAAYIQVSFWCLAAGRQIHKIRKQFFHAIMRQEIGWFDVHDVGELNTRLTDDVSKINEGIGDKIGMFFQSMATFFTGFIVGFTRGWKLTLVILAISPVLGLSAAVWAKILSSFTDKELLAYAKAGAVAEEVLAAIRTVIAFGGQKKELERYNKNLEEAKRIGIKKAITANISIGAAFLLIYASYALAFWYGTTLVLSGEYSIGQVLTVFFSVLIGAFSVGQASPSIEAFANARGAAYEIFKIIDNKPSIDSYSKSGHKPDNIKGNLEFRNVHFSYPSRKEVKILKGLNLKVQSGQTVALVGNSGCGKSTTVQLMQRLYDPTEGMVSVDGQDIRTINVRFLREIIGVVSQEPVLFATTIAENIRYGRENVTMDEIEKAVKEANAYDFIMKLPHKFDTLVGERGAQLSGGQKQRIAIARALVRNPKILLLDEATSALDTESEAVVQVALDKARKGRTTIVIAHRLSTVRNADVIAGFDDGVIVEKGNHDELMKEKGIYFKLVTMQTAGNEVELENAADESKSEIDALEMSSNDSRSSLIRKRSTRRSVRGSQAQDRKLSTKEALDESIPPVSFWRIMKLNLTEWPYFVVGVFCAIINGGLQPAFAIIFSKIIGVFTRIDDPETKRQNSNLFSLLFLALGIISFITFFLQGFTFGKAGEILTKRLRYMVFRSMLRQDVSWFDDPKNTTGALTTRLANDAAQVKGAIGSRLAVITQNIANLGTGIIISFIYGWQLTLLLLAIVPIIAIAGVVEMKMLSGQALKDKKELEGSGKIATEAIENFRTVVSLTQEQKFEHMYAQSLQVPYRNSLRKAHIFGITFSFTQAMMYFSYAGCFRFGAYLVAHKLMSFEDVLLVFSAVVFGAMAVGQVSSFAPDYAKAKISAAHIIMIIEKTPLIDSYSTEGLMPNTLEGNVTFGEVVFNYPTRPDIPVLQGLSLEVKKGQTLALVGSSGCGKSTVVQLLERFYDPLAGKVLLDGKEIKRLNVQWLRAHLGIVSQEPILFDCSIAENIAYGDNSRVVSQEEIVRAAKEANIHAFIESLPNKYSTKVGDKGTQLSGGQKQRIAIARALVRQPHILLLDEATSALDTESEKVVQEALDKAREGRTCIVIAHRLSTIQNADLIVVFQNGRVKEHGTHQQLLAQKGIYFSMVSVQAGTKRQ
From the text: as §1

patients with NASH = conditions: cited from earlier work
[3] = cited from earlier work

CC(C)c1nc(N(C)S(C)(=O)=O)nc(-c2ccc(F)cc2)c1/C=C/[C@@H](O)C[C@@H](O)CC(=O)O [rosuvastatin, (E)-7-[4-(4-fluorophenyl)-6-isopropyl-2-[methyl(methylsulfonyl)amino]pyrimidin-5-yl](3R,5S)-3,5-dihydroxyhept-6-enoic acid, reference compound]
Accumulation in control cells (human OSTαβ; dog, MDCK, 1 μM): 0.0557 ± 0.00359 pmol/min/cm^2
Accumulation in control cells (human OSTαβ; dog, MDCK, 10 μM): 0.297 ± 0.0377 pmol/min/cm^2
Accumulation in control cells (human OSTαβ; human, MDCK, 0.1 μM): 0.00664 ± 0.00215 pmol/min/cm^2
Accumulation in transporter cells (human OSTαβ; human, MDCK, 0.1 μM): 0.00894 ± 0.000845 pmol/min/cm^2
Net accumulation (human OSTαβ; human, MDCK, 0.1 μM): 0.0023 ± 0.000845 pmol/min/cm^2
Accumulation in transporter cells (human OSTαβ; human, MDCK, 1 μM): 0.0575 ± 0.00167 pmol/min/cm^2
Net accumulation (human OSTαβ; human, MDCK, 1 μM): 0.00176 ± 0.00167 pmol/min/cm^2
Accumulation in transporter cells (human OSTαβ; human, MDCK, 10 μM): 0.459 ± 0.0599 pmol/min/cm^2
Net accumulation (human OSTαβ; human, MDCK, 10 μM): 0.162 ± 0.0599 pmol/min/cm^2
Cmax, geometric mean [1]: 3.11 ng/mL
% AUCexts, mean ([1]; 10 mg): 10.6%
Cmax, mean ([1]; 10 mg): 3.62 ng/mL
T1/2, mean ([1]; 10 mg): 18.2 h
AUC(0-inf) (clinical; 10 mg, mean): 51.7 ng·h/mL
AUC(0-t) (clinical; 10 mg, mean): 44.5 ng·h/mL
Tmax (clinical; 10 mg, Tmax, mean): 4.56 h
AUC(0-inf) (clinical; geometric mean): 46.6 ng·h/mL
AUC(0-t) (clinical; geometric mean): 38 ng·h/mL

C[C@H](CCC(=O)NCCS(=O)(=O)O)[C@H]1CC[C@H]2[C@@H]3[C@H](O)C[C@@H]4C[C@H](O)CC[C@]4(C)[C@H]3C[C@H](O)[C@]12C [taurocholic acid, reference compound]
Net accumulation (human OSTαβ; 1 μM substrate): 0.0809 ± 0.0105 pmol/min/cm^2
Accumulation in transporter cells (human OSTαβ; 1 μM substrate, OSTαβ MDCK-II cells): 0.109 ± 0.0105 pmol/min/cm^2

CC(C)c1cc(Oc2c(Cl)cc(-n3nc(C#N)c(=O)[nH]c3=O)cc2Cl)n[nH]c1=O [MGL-3196, 2-(3,5-dichloro-4-((5-isopropyl-6-oxo-1,6-dihydropyridazin-3-yl)oxy)phenyl)-3,5-dioxo-2,3,4,5-tetrahydro-1,2,4-triazine-6-carbonitrile]
LDL-C and other atherogenic lipids lowering in patients with HeFH ([2]; versus placebo): statistically significantly lowers
Apolipoprotein B (ApoB) lowering ([2]; versus placebo, p<0.0001): −18-29%
Apolipoprotein CIII (Apo CIII) lowering ([2]; versus placebo, p<0.0001): −22%
Lipoprotein (a) (Lp(a)) lowering ([2]; versus placebo, p<0.0001): −26-33%
Triglyceride (TG) lowering ([2]; versus placebo, p<0.0001): −25-31%
LDL-C lowering compared to placebo ([2]; prespecified group of patients intolerant of high intensity statin doses): 28.5%
Inhibition of BCRP (in words) (BCRP): moderate inhibitor
DDI R-value (BCRP; Biliary/renal/BBB, [Ifree]/IC50 ≥ 0.02): 0.004
DDI R-value (BCRP; Intestine, [I2]/IC50 ≥ 10, predicted gut-wall BCRP interaction): 33.5
Inhibition of P-gp (in words) (P-gp): not an inhibitor
Substrate for human OSTαβ (conclusion in words) (human OSTαβ; MDCK): may be a substrate
Accumulation in control cells (human OSTαβ; dog, MDCK, 1 μM): 1.91 ± 0.220 pmol/min/cm^2
Accumulation in control cells (human OSTαβ; dog, MDCK, 10 μM): 11.3 ± 0.500 pmol/min/cm^2
Accumulation in control cells (human OSTαβ; dog, MDCK, 100 μM): 49.3 ± 6.28 pmol/min/cm^2
Accumulation in transporter cells (human OSTαβ; human, MDCK, 1 μM): 2.58 ± 0.103 pmol/min/cm^2
Net accumulation (human OSTαβ; human, MDCK, 1 μM): 0.670 ± 0.103 pmol/min/cm^2
Accumulation in transporter cells (human OSTαβ; human, MDCK, 10 μM): 21.9 ± 0.810 pmol/min/cm^2
Net accumulation (human OSTαβ; human, MDCK, 10 μM): 10.6 ± 0.810 pmol/min/cm^2
Accumulation in transporter cells (human OSTαβ; human, MDCK, 100 μM): 137 ± 12.8 pmol/min/cm^2
Net accumulation (human OSTαβ; human, MDCK, 100 μM): 88.1 ± 12.8 pmol/min/cm^2
Safety issues such as liver enzyme or creatine kinase (CK) elevations [1]: no safety issues were observed
Reducing hepatic fat compared to placebo (patients with NASH; after 12 weeks and 36 weeks of treatment): effective
Improving markers of liver injury and fibrosis compared to placebo (patients with NASH): effective
Reducing atherogenic lipids and lipoproteins (LDL cholesterol, apolipoprotein B, triglycerides, lipoprotein(a), apolipoprotein CIII) compared to placebo (patients with NASH): effective
Effect on elevated liver enzymes ([3]; NASH patients): reduces elevated liver enzymes
Safety profile ([3]; in vivo): clean safety profile
Suppression of the central thyroid axis, THR-α effects on heart rate or bone ([3]; in vivo): neither suppression of the central thyroid axis nor THR-α effects on heart rate or bone
